Measured values taken from the supplement of paper PMC6045584.
± gives the standard deviation of the averaged measurements.

Columns and labels:
[1] = compound: CCn1c(C(=O)N(C2CC2)C2CC2)cc2c3c(ncn3C)c(Nc3cc(C)n(C)n3)nc21; assay: surviving fraction relative to DMSO-only wells; higher = less growth inhibition; settings: exposure time: 5 days
In short: (§1)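 In 384-well plates, 250–500 log-phase tumour cells per well were given 24 hours before five days of continuous exposure to inhibitors at 0.5, 1, 5, 10, 50, 100, 500 and 1000 nM. Surviving fraction is luminescence from CellTiter-Glo, normalised to the median of wells containing DMSO alone. Reading took place after 10 minutes at room temperature.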

[2] = compound: CNC(=O)c1cc(Oc2ccc(NC(=O)Nc3ccc(Cl)c(C(F)(F)F)c3)cc2)ccn1 [SORAFENIB]; assay: as above; settings: exposure time: 5 days
In short: as §1

| Test System | surviving fraction ([1]; 0.5 nM) | surviving fraction ([1]; 1 nM) | surviving fraction ([1]; 5 nM) | surviving fraction ([1]; 10 nM) | surviving fraction ([1]; 50 nM) | surviving fraction ([1]; 100 nM) | surviving fraction ([1]; 500 nM) | surviving fraction ([1]; 1000 nM) | surviving fraction ([2]; 0.5 nM) | surviving fraction ([2]; 1 nM) | surviving fraction ([2]; 5 nM) | surviving fraction ([2]; 10 nM) | surviving fraction ([2]; 50 nM) | surviving fraction ([2]; 100 nM) | surviving fraction ([2]; 500 nM) | surviving fraction ([2]; 1000 nM) |
| --- | --- | --- | --- | --- | --- | --- | --- | --- | --- | --- | --- | --- | --- | --- | --- | --- |
| T47D BREAST | 1.02 ± 0.045 | 0.994 ± 0.066 | 1 ± 0.026 | 0.955 ± 0.024 | 1.04 ± 0.02 | 1.05 ± 0.014 | 1.04 ± 0.067 | 1.04 ± 0.006 | 1.083 ± 0.01 | 1.02 ± 0.028 | 1.07 ± 0.053 | 1.02 ± 0.046 | 1.14 ± 0.029 | 1.13 ± 0.018 | 1.149 ± 0.0045 | 1.12 ± 0.039 |
| SUM159 BREAST | 1.04 ± 0.063 | 0.972 ± 0.041 | 0.997 ± 0.012 | 0.873 ± 0.2 | 0.95 ± 0.12 | 0.965 ± 0.12 | 0.955 ± 0.13 | 0.959 ± 0.1 | 0.909 ± 0.23 | 0.956 ± 0.18 |  | 0.936 ± 0.18 | 0.997 ± 0.15 |  | 0.909 ± 0.28 | 0.071 ± 0.043 |
| CADOES1 SOFT TISSUE | 0.958 ± 0.066 | 0.961 ± 0.061 | 0.905 ± 0.13 | 0.92 ± 0.068 | 0.889 ± 0.16 | 0.94 ± 0.026 | 0.913 ± 0.033 | 0.988 ± 0.091 | 1.02 ± 0.062 |  | 0.862 ± 0.035 |  | 0.972 ± 0.15 | 0.947 ± 0.1 |  | 0.603 ± 0.19 |
| SG32 HEADNECK | 0.996 ± 0.081 | 1.17 ± 0.013 | 1.22 ± 0.2 | 1.22 ± 0.25 | 0.95 ± 0.19 | 0.98 ± 0.12 | 1.02 ± 0.24 | 0.86 ± 0.022 | 1.2 ± 0.15 | 1.47 ± 0.68 | 1.33 ± 0.044 | 1.42 ± 0.35 | 1.76 ± 0.68 | 1.62 ± 0.26 | 1.53 ± 0.35 | 1.56 ± 0.36 |
| BT20 BREAST | 1.07 ± 0.032 | 0.999 ± 0.25 | 1.09 ± 0.24 | 1 ± 0.2 | 1.1 ± 0.26 | 1.07 ± 0.16 | 1.16 ± 0.22 | 1.24 ± 0.18 |  | 1.04 ± 0.26 | 1.07 ± 0.23 | 1.07 ± 0.23 | 1.01 ± 0.33 | 0.951 ± 0.3 |  |  |
| OSHN BONE | 1.03 ± 0.026 | 1.02 ± 0.016 | 1.03 ± 0.017 | 1.01 ± 0.025 | 1.05 ± 0.041 | 1.03 ± 0.04 | 1.03 ± 0.033 | 0.999 ± 0.023 | 1.06 ± 0.024 | 1.047 ± 0.0099 | 1.07 ± 0.018 | 1.05 ± 0.015 | 1.09 ± 0.037 | 1.06 ± 0.014 | 1.08 ± 0.025 | 1.05 ± 0.013 |
| C33A CERVIX | 0.809 ± 0.035 | 0.801 ± 0.11 | 0.926 ± 0.082 | 1.03 ± 0.19 | 0.895 ± 0.049 | 1.08 ± 0.15 | 0.768 ± 0.025 | 0.657 ± 0.1 |  | 1.1 ± 0.17 | 1.08 ± 0.084 | 1.07 ± 0.075 | 1.18 ± 0.17 | 1.23 ± 0.17 | 1.21 ± 0.069 | 1.19 ± 0.13 |
| SKBR3 BREAST | 0.949 ± 0.15 | 1.07 ± 0.11 | 0.955 ± 0.11 | 1.04 ± 0.12 | 1.08 ± 0.12 | 1.1 ± 0.049 | 1.04 ± 0.081 | 0.999 ± 0.14 | 1.12 ± 0.15 | 1.07 ± 0.22 | 0.978 ± 0.087 | 0.951 ± 0.16 | 0.96 ± 0.16 | 0.95 ± 0.1 | 1.08 ± 0.23 | 1.1 ± 0.053 |
| 22RV1 PROSTATE | 0.972 ± 0.044 | 1.03 ± 0.037 | 0.975 ± 0.019 | 1.02 ± 0.017 | 1.07 ± 0.031 | 1.03 ± 0.079 | 1.07 ± 0.018 | 1.08 ± 0.064 | 0.995 ± 0.029 |  | 0.974 ± 0.014 | 0.955 ± 0.025 | 1.09 ± 0.034 | 1.09 ± 0.064 | 1.11 ± 0.043 |  |
